Here are results for twelve compounds from patent publication US20240376097A1, “BCL-2 Inhibitor” (BeiGene Ltd., priority 2020, published 2024).

Each structure is given as a SMILES string.

Assay [1] deals with recombinant human Bcl-2-G101V protein. As to the kind of experiment: Bcl-2-G101V TR-FRET Assay. Type of assay: binding. To be noted: ratio of biochemical IC50 Bcl-2 G101V / Bcl-2 WT. The method, boiled down: (§1)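 Displacement of ligand from recombinant human Bcl-2-G101V measured by TR-FRET (ex337 nm, em490/520 nm), inhibition derived from the 490/520 ratio across compound titrations. IC50 from four-parameter logistic fit.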

The target of assay [2] is recombinant human Bcl-2-G101V protein (Homo sapiens (Human), UniProt P10415, G101V). The assay is described as follows: Bcl-2-G101V TR-FRET Assay. Type of assay: binding. To be noted: Bcl-2 G101V mutant, TR-FRET; read-out: Biochemical assay (IC50, nM) Bcl-2 G101V. The method, boiled down:
as §1
(Time-resolved FRET reads energy transfer from a long-lived donor to a nearby acceptor.)

Assay [3] relates to RS4;11 (BCL-2 dependent acute lymphoblastic leukemia cell line). As to the kind of experiment: RS4;11 Cell Proliferation Assay. It is filed as cell-based. Particulars: Homo sapiens, RS4-11, RS4;11 cells, read-out: Cellular proliferation assay (IC50, nM) RS4. The method, boiled down:
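Viability measured via CellTiter-Glo luminescence after a 48 h, 37 °C exposure to compounds (10 points, highest 1 μM). Seeding was 50,000 RS4;11 cells per well in 10% FBS RPMI-1640; IC50 given as mean.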

In assay [4] the target is Recombinant human Bcl-2 protein (Homo sapiens (Human), UniProt P10415). The assay is described as follows: Bcl-2 TR-FRET Assay. Type of assay: binding. Particulars: Bcl-2 wild type, TR-FRET; read-out: Biochemical assay (IC50, nM) Bcl-2 WT. The gist of the method:
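TR-FRET read (337 nm excitation, 520/490 nm emission) after 1 h with 0.5 nM FITC-labeled Bak peptide and Tb-cryptate anti-6His antibody. Bcl-2 at 0.05 nM had been pre-incubated 0.5 h with compound. IC50 fitted by four-parameter logistic equation.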

Assay [5] has as its system BCL-2 G101V knock-in cell line H96 (derive from RS4;11). The assay is described as follows: Bcl 2-G101V Knock-In RS4;11 Cell Proliferation Assay. Type of assay: cell-based. Particulars: Homo sapiens, RS4;11 Bcl-2 G101V knock-in clone H96, 48 hrs, CellTiter-GLO, read-out: Cellular proliferation assay (IC50, nM) RS4. The gist of the method: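 CellTiter-Glo luminescence after 48 h, 37 °C compound treatment (10 concentrations, maximum 1 μM or 10 μM) gave mean IC50 values. Cells were 50,000 per well of H96, a BCL2-G101V knock-in single clone derived from RS4;11 by Cas9 editing.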
On the technique in general: In ATP-based viability assays light output follows the ATP content of the culture.

Turning to `COc1ccc(CN2CCN(C3CC4(CCN(c5ccc(C(=O)NS(=O)(=O)c6ccc(NCC7CCOCC7)c([N+](=O)[O-])c6)c(Oc6cnc7[nH]cc(F)c7c6)c5)CC4)C3)[C@H](c3ccccc3C(C)C)C2)cc1OC` [Example 191, (R)-4-(2-(4-(3,4-dimethoxybenzyl)-2-(2-isopropylphenyl)piperazin-1-yl)-7-azaspiro[3.5]nonan-7-yl)-2-((3-fluoro-1H-pyrolo[2,3-b]pyridin-5-yl)oxy)-N-((3-nitro-4-(((tetrahydro-2H-pyran-4-yl)methyl)amino)phenyl)sulfonyl) benzamide], in assay [1], the “Ratio of Bcl-2 G101V/WT” value worked out at 3.3. Also, the IC50 stood at 0.2 nM in assay [2], 0.15 nM in assay [3], 0.061 nM in assay [4] and 0.52 nM in assay [5].

For `[2H]C([2H])(c1ccc(OC)c(OC)c1)N1CCN(C2CC3(CCN(c4ccc(C(=O)NS(=O)(=O)c5ccc(NC[C@H]6CC[C@](C)(O)CC6)c([N+](=O)[O-])c5)c(Oc5cnc6[nH]ccc6c5)c4)CC3)C2)C(c2ccccc2C(C)C)C1` (stereo partly drawn) [Example 193], in assay [1], the “Ratio of Bcl-2 G101V/WT” value was 3.4. The IC50 amounted to 0.23 nM in assay [2], 0.26 nM in assay [3], 0.068 nM in assay [4] and 0.8 nM in assay [5].

For the compound `CC(C)c1ccccc1C1CN(Cc2cccc3c2N(C)CCO3)CCN1C1CC2(CCN(c3ccc(C(=O)NS(=O)(=O)c4ccc(NC[C@H]5CC[C@](C)(O)CC5)c([N+](=O)[O-])c4)c(Oc4cnc5[nH]ccc5c4)c3)CC2)C1` (stereo partly drawn) [Example 200, 2-((1H-pyrrolo[2,3-b]pyridin-5-yl)oxy)-N-((4-((((1r,4r)-4-hydroxy-4-methylcyclohexyl)methyl)amino)-3-nitrophenyl)sulfonyl)-4-(2-(2-(2-isopropylphenyl)-4-((4-methyl-3,4-dihydro-2H-benzo[b][1,4]oxazin-5-yl)methyl)piperazin-1-yl)-7-azaspiro[3.5]nonan-7-yl) benzamide], in assay [1], the “Ratio of Bcl-2 G101V/WT” value turned out to be 4.2. The IC50 in assay [2] was 1.02 nM; in assay [3] it was 0.27 nM; in assay [4] it was 0.24 nM; in assay [5] it was 1.6 nM.

Consider `CC(C)c1ccccc1C1CN(Cc2cccc3c2OC(C)(C)O3)CCN1C1CC2(CCN(c3ccc(C(=O)NS(=O)(=O)c4ccc(NC[C@H]5CC[C@](C)(O)CC5)c([N+](=O)[O-])c4)c(Oc4cnc5[nH]ccc5c4)c3)CC2)C1` (stereo partly drawn) [Example 201, 2-((1H-pyrrolo[2,3-b]pyridin-5-yl)oxy)-4-(2-(4-((2,2-dimethylbenzo [d][1,3]dioxol-4-yl)methyl)-2-(2-isopropylphenyl)piperazin-1-yl)-7-azaspiro[3.5]nonan-7-yl)-N-((4-((((1r,4r)-4-hydroxy-4-methylcyclohexyl)methyl)amino)-3-nitrophenyl)sulfonyl)benzamide], for which the “Ratio of Bcl-2 G101V/WT” value in assay [1] stood at 3.9. Further, the IC50 is 1.1 nM in assay [2], 0.74 nM in assay [3], 0.28 nM in assay [4] and 6.2 nM in assay [5].

For the compound `COc1ccc(CN2CCN(C3CC4(CCN(c5ccc(C(=O)NS(=O)(=O)c6ccc(NC[C@H]7CC[C@](C)(O)CC7)c([N+](=O)[O-])c6)c(Oc6cnc7[nH]ccc7c6)c5)CC4)C3)C(c3ccccc3C(C)C)C2)cc1C(C)=O` (stereo partly drawn) [Example 212, 2-((1H-pyrrolo[2,3-b]pyridin-5-yl)oxy)-4-(2-(4-(3-acetyl-4-methoxybenzyl)-2-(2-isopropylphenyl)piperazin-1-yl)-7-azaspiro[3.5]nonan-7-yl)-N-((4-((((1r,4r)-4-hydroxy-4-methylcyclohexyl)methyl)amino)-3-nitrophenyl)sulfonyl)benzamide], in assay [1], the “Ratio of Bcl-2 G101V/WT” value was 4.2. Also, the IC50 in assay [2] worked out at 0.54 nM; in assay [3] it was 0.3 nM; in assay [4], 0.13 nM; in assay [5], 2.15 nM.

On to `CC(C)c1ccccc1C1CN(Cc2cccc3occc23)CCN1C1CC2(CCN(c3ccc(C(=O)NS(=O)(=O)c4ccc(NC[C@H]5CC[C@](C)(O)CC5)c([N+](=O)[O-])c4)c(Oc4cnc5[nH]ccc5c4)c3)CC2)C1` (stereo partly drawn) [Example 213, 2-((1H-pyrrolo[2,3-b]pyridin-5-yl)oxy)-4-(2-(4-(benzofuran-4-ylmethyl)-2-(2-isopropylphenyl)piperazin-1-yl)-7-azaspiro[3.5]nonan-7-yl)-N-((4-((((1r,4r)-4-hydroxy-4-methylcyclohexyl)methyl)amino)-3-nitrophenyl)sulfonyl)benzamide], for which the “Ratio of Bcl-2 G101V/WT” value in assay [1] is listed as 3.7. Also, the IC50 amounted to 2.6 nM in assay [2], 0.32 nM in assay [3], 0.7 nM in assay [4] and 5.2 nM in assay [5].

On to `CC(C)c1ccccc1C1CN(Cc2cccc3c2N(C)C(=O)CO3)CCN1C1CC2(CCN(c3ccc(C(=O)NS(=O)(=O)c4ccc(NC[C@H]5CC[C@](C)(O)CC5)c([N+](=O)[O-])c4)c(Oc4cnc5[nH]ccc5c4)c3)CC2)C1` (stereo partly drawn) [Example 216, 2-((1H-pyrrolo[2,3-b]pyridin-5-yl)oxy)-N-((4-((((1r,4r)-4-hydroxy-4-methylcyclohexyl)methyl)amino)-3-nitrophenyl)sulfonyl)-4-(2-(2-(2-isopropylphenyl)-4-((4-methyl-3-oxo-3,4-dihydro-2H-benzo[b] [1,4]oxazin-5-yl)methyl)piperazin-1-yl)-7-azaspiro[3.5]nonan-7-yl) benzamide], for which the “Ratio of Bcl-2 G101V/WT” value in assay [1] came out at 4.2. The IC50 stood at 0.81 nM in assay [2], 0.33 nM in assay [3], 0.19 nM in assay [4] and 2.76 nM in assay [5].

As to `COc1ccc(CN2CCN(C3CC4(CCN(c5ccc(C(=O)NS(=O)(=O)c6cc7c(c([N+](=O)[O-])c6)N[C@H](C[C@H]6CC[C@H](O)CC6)CO7)c(Oc6cnc7[nH]ccc7c6)c5)CC4)C3)[C@H](c3ccccc3C(C)C)C2)cc1` [Example 221], the “Ratio of Bcl-2 G101V/WT” value in assay [1] is listed as 3.4. Besides, the IC50 in assay [2] came to 0.27 nM; in assay [3], 0.16 nM; in assay [4] it was 0.08 nM; in assay [5], 0.92 nM.

In the case of `COc1cc(CN2CCN(C3CC4(C3)CN(c3ccc(C(=O)NS(=O)(=O)c5ccc(NC[C@H]6CC[C@](C)(O)CC6)c([N+](=O)[O-])c5)c(Oc5cnc6[nH]ccc6c5)c3)C4)[C@H](c3ccccc3C(C)C)C2)cc(C)c1OC` [Example 234, 2-((1H-pyrrolo[2,3-b]pyridin-5-yl)oxy)-4-(6-((R)-4-(3,4-dimethoxy-5-methylbenzyl)-2-(2-isopropylphenyl)piperazin-1-yl)-2-azaspiro[3.3]heptan-2-yl)-N-((4-((((1r,4r)-4-hydroxy-4-methylcyclohexyl)methyl)amino)-3-nitrophenyl)sulfonyl)benzamide], the “Ratio of Bcl-2 G101V/WT” value in assay [1] is given as 3.7. The IC50 is 0.32 nM in assay [2], 0.09 nM in assay [3], 0.087 nM in assay [4] and 0.35 nM in assay [5].

Take `COc1ccc(CN2CCN(C3CC4(CCN(c5ccc(C(=O)NS(=O)(=O)c6ccc(NC[C@H]7CC[C@](C)(O)CC7)c([N+](=O)[O-])c6)c(Oc6cnc7[nH]ccc7c6)c5)CC4)C3)C(c3cc(F)ccc3C(C)C)C2)cc1` (stereo partly drawn) [Example 235]: the “Ratio of Bcl-2 G101V/WT” value in assay [1] is 3.8. In addition, the IC50 turned out to be 1.1 nM in assay [2], 0.27 nM in assay [3], 0.28 nM in assay [4] and 1.21 nM in assay [5].

As for `CC(C)c1ccccc1[C@@H]1CN(Cc2ccc(F)c(F)c2)CCN1C1CC2(C1)CN(c1ccc(C(=O)NS(=O)(=O)c3ccc(NC[C@H]4CC[C@](C)(O)CC4)c([N+](=O)[O-])c3)c(Oc3cnc4[nH]ccc4c3)c1)C2` [Example 244, 2-((1H-pyrrolo[2,3-b]pyridin-5-yl)oxy)-4-(6-((R)-4-(3,4-difluorobenzyl)-2-(2-isopropylphenyl)piperazin-1-yl)-2-azaspiro[3.3]heptan-2-yl)-N-((4-((((1r,4r)-4-hydroxy-4-methylcyclohexyl)methyl)amino)-3-nitrophenyl)sulfonyl)benzamide], the “Ratio of Bcl-2 G101V/WT” value in assay [1] turned out to be 3.3. The IC50 in assay [2] came out at 0.83 nM; in assay [3], 0.2 nM; in assay [4], 0.25 nM; in assay [5], 1.36 nM.

With `COc1cc(CN2CCN(C3CC4(C3)CN(c3ccc(C(=O)NS(=O)(=O)c5ccc(NC[C@H]6CC[C@](C)(O)CC6)c([N+](=O)[O-])c5)c(Oc5cnc6[nH]ccc6c5)c3)C4)[C@H](c3ccccc3C(C)C)C2)cc(F)c1OC` [Example 245, 2-((1H-pyrrolo[2,3-b]pyridin-5-yl)oxy)-4-(6-((R)-4-(3-fluoro-4,5-dimethoxybenzyl)-2-(2-isopropylphenyl)piperazin-1-yl)-2-azaspiro[3.3]heptan-2-yl)-N-((4-((((1r,4r)-4-hydroxy-4-methylcyclohexyl)methyl)amino)-3-nitrophenyl)sulfonyl)benzamide], the “Ratio of Bcl-2 G101V/WT” value in assay [1] stood at 2.5. The IC50 in assay [2] was determined as 0.32 nM; in assay [3] it was 0.15 nM; in assay [4], 0.13 nM; in assay [5], 0.53 nM.
